The data set concerns CCRIS mutagenicity, Ames/micronucleus/aberration tests. The data set is described as follows: CCRIS mutagenicity studies.

The record followed here is PubChem BioAssay AID1259407 (Chemical Carcinogenesis Research Information System (CCRIS), 2018).

The source made the active and inactive calls. The rule behind the calls is not given here.

With `Nc1ccc2c(c1)C(=O)c1ccccc1C2=O`, the mutagenic call (End Point: IN VITRO CHROMOSOMAL ABERRATIONS, Test System: CHL CELLS, Metabolic Activation: RAT, LIVER, S-9, SODIUM PHENOBARBITAL AND 5,6-BENZOFLAVONE) was “inactive; negative”; the mutagenic call (Test System: AMES SALMONELLA TYPHIMURIUM, Strain/Indicator: TA98, Metabolic Activation: HAMSTER, LIVER, S-9, AROCLOR 1254, Method: STANDARD PLATE) was “active; positive”; the mutagenic call (Test System: AMES SALMONELLA TYPHIMURIUM, Strain/Indicator: TA98, Metabolic Activation: HAMSTER, LIVER, S-9, Method: STANDARD PLATE) was “active; positive”; the mutagenic call (Test System: AMES SALMONELLA TYPHIMURIUM, Strain/Indicator: TA98, Metabolic Activation: MOUSE, LIVER, S-9, AROCLOR 1254, Method: STANDARD PLATE) was “active; positive”; the mutagenic call (Test System: AMES SALMONELLA TYPHIMURIUM, Strain/Indicator: TA98, Metabolic Activation: MOUSE, LIVER, S-9, Method: STANDARD PLATE) was “active; positive”; the mutagenic call (Test System: AMES SALMONELLA TYPHIMURIUM, Strain/Indicator: TA98, Metabolic Activation: NONE, Method: STANDARD PLATE) is “inactive; negative”. Also, the mutagenic call is “active; positive” (Test System: AMES SALMONELLA TYPHIMURIUM, Strain/Indicator: TA98, Metabolic Activation: RAT, LIVER, S-9, AROCLOR 1254, Method: STANDARD PLATE); “active; positive” (Test System: AMES SALMONELLA TYPHIMURIUM, Strain/Indicator: TA98, Metabolic Activation: RAT, LIVER, S-9, Method: STANDARD PLATE); “active; positive” (Test System: AMES SALMONELLA TYPHIMURIUM, Strain/Indicator: TA100, Metabolic Activation: HAMSTER, LIVER, S-9, AROCLOR 1254, Method: STANDARD PLATE); “active; positive” (Test System: AMES SALMONELLA TYPHIMURIUM, Strain/Indicator: TA100, Metabolic Activation: HAMSTER, LIVER, S-9, Method: STANDARD PLATE); “active; positive” (Test System: AMES SALMONELLA TYPHIMURIUM, Strain/Indicator: TA100, Metabolic Activation: MOUSE, LIVER, S-9, AROCLOR 1254, Method: STANDARD PLATE); “inactive; negative” (Test System: AMES SALMONELLA TYPHIMURIUM, Strain/Indicator: TA100, Metabolic Activation: NONE, Method: STANDARD PLATE). Further, the mutagenic call (Test System: AMES SALMONELLA TYPHIMURIUM, Strain/Indicator: TA100, Metabolic Activation: RAT, LIVER, S-9, AROCLOR 1254, Method: STANDARD PLATE) is “active; positive”; the mutagenic call (Test System: AMES SALMONELLA TYPHIMURIUM, Strain/Indicator: TA1535, Metabolic Activation: HAMSTER, LIVER, S-9, Method: STANDARD PLATE) was “inactive; negative”; the mutagenic call (Test System: AMES SALMONELLA TYPHIMURIUM, Strain/Indicator: TA1535, Metabolic Activation: MOUSE, LIVER, S-9, AROCLOR 1254, Method: STANDARD PLATE) is “inactive; negative”; the mutagenic call (Test System: AMES SALMONELLA TYPHIMURIUM, Strain/Indicator: TA1535, Metabolic Activation: MOUSE, LIVER, S-9, Method: STANDARD PLATE) was “inactive; negative”; the mutagenic call (Test System: AMES SALMONELLA TYPHIMURIUM, Strain/Indicator: TA1535, Metabolic Activation: NONE, Method: STANDARD PLATE) is “inactive; negative”; the mutagenic call (Test System: AMES SALMONELLA TYPHIMURIUM, Strain/Indicator: TA1537, Metabolic Activation: HAMSTER, LIVER, S-9, AROCLOR 1254, Method: STANDARD PLATE) is “active; positive”. In addition, the mutagenic call by setting is: (Test System: AMES SALMONELLA TYPHIMURIUM, Strain/Indicator: TA1537, Metabolic Activation: HAMSTER, LIVER, S-9, Method: STANDARD PLATE) “active; positive”; (Test System: AMES SALMONELLA TYPHIMURIUM, Strain/Indicator: TA1537, Metabolic Activation: MOUSE, LIVER, S-9, AROCLOR 1254, Method: STANDARD PLATE) “active; positive”; (Test System: AMES SALMONELLA TYPHIMURIUM, Strain/Indicator: TA1537, Metabolic Activation: MOUSE, LIVER, S-9, Method: STANDARD PLATE) “active; positive”; (Test System: AMES SALMONELLA TYPHIMURIUM, Strain/Indicator: TA1537, Metabolic Activation: RAT, LIVER, S-9, AROCLOR 1254, Method: STANDARD PLATE) “active; positive”; (Test System: AMES SALMONELLA TYPHIMURIUM, Strain/Indicator: TA1537, Metabolic Activation: RAT, LIVER, S-9, Method: STANDARD PLATE) “active; positive”; (Test System: AMES SALMONELLA TYPHIMURIUM, Strain/Indicator: TA1538, Metabolic Activation: HAMSTER, LIVER, S-9, AROCLOR 1254, Method: STANDARD PLATE) “active; positive”. Moreover, the mutagenic call by setting is: (Test System: AMES SALMONELLA TYPHIMURIUM, Strain/Indicator: TA1538, Metabolic Activation: HAMSTER, LIVER, S-9, Method: STANDARD PLATE) “active; positive”; (Test System: AMES SALMONELLA TYPHIMURIUM, Strain/Indicator: TA1538, Metabolic Activation: MOUSE, LIVER, S-9, AROCLOR 1254, Method: STANDARD PLATE) “active; positive”; (Test System: AMES SALMONELLA TYPHIMURIUM, Strain/Indicator: TA1538, Metabolic Activation: MOUSE, LIVER, S-9, Method: STANDARD PLATE) “active; positive”; (Test System: AMES SALMONELLA TYPHIMURIUM, Strain/Indicator: TA1538, Metabolic Activation: NONE, Method: STANDARD PLATE) “inactive; negative”; (Test System: AMES SALMONELLA TYPHIMURIUM, Strain/Indicator: TA1538, Metabolic Activation: RAT, LIVER, S-9, AROCLOR 1254, Method: STANDARD PLATE) “active; positive”; (Test System: AMES SALMONELLA TYPHIMURIUM, Strain/Indicator: TA1538, Metabolic Activation: RAT, LIVER, S-9, Method: STANDARD PLATE) “active; positive”. The mutagenic call is “inactive; negative” (Test System: E. COLI, Strain/Indicator: WP2 UVRA, Metabolic Activation: HAMSTER, LIVER, S-9, Method: STANDARD PLATE); “inactive; negative” (Test System: E. COLI, Strain/Indicator: WP2 UVRA, Metabolic Activation: MOUSE, LIVER, S-9, Method: STANDARD PLATE); “inactive; negative” (Test System: E. COLI, Strain/Indicator: WP2 UVRA, Metabolic Activation: NONE, Method: STANDARD PLATE); “inactive; negative” (Test System: E. COLI, Strain/Indicator: WP2 UVRA, Metabolic Activation: RAT, LIVER, S-9, Method: STANDARD PLATE); “active; positive” (Test System: MOUSE LYMPHOMA, Strain/Indicator: L5178Y (TK+/TK-), Metabolic Activation: NONE, Method: SUSPENSION/PLATE).

`Oc1cccc2c1sc1ccccc12`: where the note is “Test System: CHINESE HAMSTER OVARY, Strain/Indicator: CHO-K1-BH4 (HGPRT)/6-THIOGUANINE, Metabolic Activation: RAT, LIVER, S-9, AROCLOR (4%)”, the mutagenic call is “active; positive”.

With `COc1cc2c(cc1O)CC1c3c(cc(OC)c(O)c3-2)CC[N+]1(C)C` (configuration not stated), the mutagenic call (Test System: AMES SALMONELLA TYPHIMURIUM, Strain/Indicator: TA100, Metabolic Activation: RAT, LIVER, S-9, PHENOBARBITAL AND BETA-NAPHTHOFLAVONE, Method: PREINCUBATION) was “inactive; negative”.

Consider `Oc1ccc(Cl)cc1Cc1cc(Cl)ccc1O`, for which the mutagenic call (Test System: AMES SALMONELLA TYPHIMURIUM, Strain/Indicator: TA98, Metabolic Activation: HAMSTER, LIVER, S-9, AROCLOR 1254 (30%), Method: PREINCUBATION) was “inactive; negative”; the mutagenic call (Test System: AMES SALMONELLA TYPHIMURIUM, Strain/Indicator: TA98, Metabolic Activation: NONE, Method: PREINCUBATION) was “inactive; negative”; the mutagenic call (Test System: AMES SALMONELLA TYPHIMURIUM, Strain/Indicator: TA98, Metabolic Activation: RAT, LIVER, S-9, AROCLOR 1254 (30%), Method: PREINCUBATION) was “inactive; negative”; the mutagenic call (Test System: AMES SALMONELLA TYPHIMURIUM, Strain/Indicator: TA100, Metabolic Activation: NONE, Method: PREINCUBATION) was “inactive; negative”; the mutagenic call (Test System: AMES SALMONELLA TYPHIMURIUM, Strain/Indicator: TA1535, Metabolic Activation: HAMSTER, LIVER, S-9, AROCLOR 1254 (30%), Method: PREINCUBATION) was “inactive; negative”.
